Laboratory results published in ChEMBL document CHEMBL1130493, “Dimeric aminoglycosides: Design, synthesis and RNA binding” (Bioorg Med Chem Lett, 1997).

Columns and labels:
[1] = Compound was tested for the pseudo first-order rate constants for the inhibition of the cleavage step (k2) of the hammerhead ribozyme at a concentration of 1 uM
[2] = Compound was tested for the pseudo first-order rate constants for the inhibition of the cleavage step (k2) of the hammerhead ribozyme at a concentration of 10 uM
[3] = Compound was tested for the pseudo first-order rate constants for the inhibition of the cleavage step (k2) of the hammerhead ribozyme at a concentration of 100 uM; not determined at this concentration
[4] = Compound was tested for the pseudo first-order rate constants for the inhibition of the cleavage step (k2) of the hammerhead ribozyme at a concentration of 100 uM; too active and complete inhibition is observed
[5] = Compound was tested for the pseudo first-order rate constants for the inhibition of the cleavage step (k2) of the hammerhead ribozyme at a concentration of 100 uM
[6] = Compound was tested for the pseudo first-order rate constants for the inhibition of the cleavage step (k2) of the hammerhead ribozyme at a concentration of 1 uM; not determined at this concentration
[7] = Compound was tested for the pseudo first-order rate constants for the inhibition of the cleavage step (k2) of the hammerhead ribozyme at a concentration of 100 uM; too active and complete inhibition is observed; remark: listed apart in the source

| K2 [1] [min⁻¹] | K2 [2] [min⁻¹] | K2 [3] | K2 [5] [min⁻¹] | K2 [6] | Structure (SMILES) | K2 [4] | K2 [7] |
| --- | --- | --- | --- | --- | --- | --- | --- |
| 0.041 | 0.003 | No inhibition |  |  | NCC1O[C@H](O[C@H]2[C@@H](O)[C@H](O[C@H]3[C@H](O)[C@@H](N)C[C@@H](N)[C@@H]3O[C@H]3O[C@H](CN)[C@@H](O)[C@H](O)[C@H]3N)O[C@@H]2CSCCOCCSSCCOCCSC[C@H]2O[C@@H](O[C@H]3[C@H](O)[C@@H](N)C[C@@H](N)[C@@H]3O[C@H]3O[C@H](CN)[C@@H](O)[C@H](O)[C@H]3N)[C@H](O)[C@@H]2O[C@@H]2OC(CN)[C@H](O)[C@@H](O)[C@@H]2N)[C@H](N)[C@@H](O)[C@@H]1O (stereo partly specified) |  |  |
| 0.046 | 0.008 |  |  |  | NCC1O[C@H](O[C@H]2[C@@H](O)[C@H](O[C@H]3[C@H](O)[C@@H](N)C[C@@H](N)[C@@H]3O[C@H]3O[C@H](CN)[C@@H](O)[C@H](O)[C@H]3N)O[C@@H]2CSCCOCCSSCCOCCSC[C@H]2O[C@H](O[C@@H]3[C@@H](O)[C@H](O[C@H]4O[C@H](CN)[C@@H](O)C[C@H]4N)[C@@H](N)C[C@H]3N)[C@H](O)[C@@H](N)[C@@H]2O)[C@H](N)[C@@H](O)[C@@H]1O (stereo partly specified) |  |  |

Second part, the compound before the results:

| Structure (SMILES) | K2 [1] [min⁻¹] | K2 [2] [min⁻¹] | K2 [3] | K2 [5] [min⁻¹] | K2 [6] | K2 [4] | K2 [7] |
| --- | --- | --- | --- | --- | --- | --- | --- |
| NC[C@H]1OC(O[C@H]2[C@H](O)[C@@H](OC3O[C@H](CO)[C@@H](O)[C@H](N)[C@H]3O)[C@H](N)C[C@@H]2N)[C@H](N)C[C@@H]1O (single isomer, unassigned) [TOBRAMYCIN] |  | 0.051 |  | 0.012 |  | Too active and complete inhibition is observed |  |
| NC[C@H]1O[C@H](O[C@H]2[C@H](O)[C@@H](O[C@H]3O[C@H](CSCCOCCSSCCOCCSC[C@H]4O[C@H](O[C@@H]5[C@@H](O)[C@H](O[C@H]6O[C@H](CN)[C@@H](O)[C@H](O)[C@H]6O)[C@@H](N)C[C@H]5N)[C@H](O)[C@@H](N)[C@@H]4O)[C@@H](O)[C@H](N)[C@H]3O)[C@H](N)C[C@@H]2N)[C@H](O)[C@@H](O)[C@@H]1O |  | 0.017 |  |  |  | Too active and complete inhibition is observed |  |
| NC[C@H]1O[C@H](O[C@H]2[C@H](O)[C@@H](O[C@H]3O[C@H](CSCCOCCSSCCOCCSC[C@H]4O[C@H](O[C@@H]5[C@@H](O)[C@H](O[C@H]6O[C@H](CN)[C@@H](O)C[C@H]6N)[C@@H](N)C[C@H]5N)[C@H](O)[C@@H](N)[C@@H]4O)[C@@H](O)[C@H](N)[C@H]3O)[C@H](N)C[C@@H]2N)[C@H](O)[C@@H](O)[C@@H]1O |  | 0.014 |  |  |  | Too active and complete inhibition is observed |  |
| NC[C@H]1O[C@H](O[C@H]2[C@H](O)[C@@H](O[C@H]3O[C@H](CSCCOCCSSCCOCCSC[C@H]4O[C@H](O[C@@H]5[C@@H](O)[C@H](O[C@H]6O[C@H](CN)[C@@H](O)C[C@H]6N)[C@@H](N)C[C@H]5N)[C@H](O)[C@@H](N)[C@@H]4O)[C@@H](O)[C@H](N)[C@H]3O)[C@H](N)C[C@@H]2N)[C@H](N)C[C@@H]1O [Tobramycin-Tobramycin] |  | 0.011 |  |  | No inhibition | Too active and complete inhibition is observed |  |
| NC[C@H]1O[C@H](O[C@H]2[C@H](O)[C@@H](O[C@H]3O[C@H](CO)[C@@H](O)[C@H](N)[C@H]3O)[C@H](N)C[C@@H]2N)[C@H](O)[C@@H](O)[C@@H]1O [KANAMYCIN A] |  |  |  | 0.058 |  | Too active and complete inhibition is observed | Too active and complete inhibition is observed |
| NC[C@@H]1O[C@H](O[C@H]2[C@@H](O)[C@H](O[C@@H]3[C@@H](O)[C@H](N)C[C@H](N)[C@H]3O[C@H]3O[C@H](CN)[C@@H](O)[C@H](O)[C@H]3N)O[C@@H]2CO)[C@H](N)[C@@H](O)[C@@H]1O [FRAMYCETIN] | 0.062 | 0.018 | No inhibition |  |  |  |  |
